In brackets after ≈: the same amount, converted by molar mass. Activity calls are given as the source filed them. The rule behind the calls is not given here.
Assays:
[1] = system: Staphylococcus aureus; experiment: Antibacterial activity against methicillin-resistant Staphylococcus aureus clinical isolate M-23 incubated for 14 hrs by two-fold serial dilution method; format: functional
[2] = system: Staphylococcus aureus; experiment: Antibacterial activity against methicillin-resistant Staphylococcus aureus clinical isolate M-22 incubated for 14 hrs by two-fold serial dilution method; format: functional
[3] = system: Staphylococcus aureus; experiment: Antibacterial activity against methicillin-resistant Staphylococcus aureus clinical isolate M-17 incubated for 14 hrs by two-fold serial dilution method; format: functional
[4] = system: Staphylococcus aureus; experiment: Antibacterial activity against methicillin-resistant Staphylococcus aureus clinical isolate M-13 incubated for 14 hrs by two-fold serial dilution method; format: functional
[5] = system: Staphylococcus aureus; experiment: Antibacterial activity against methicillin-resistant Staphylococcus aureus clinical isolate M-21 incubated for 14 hrs by two-fold serial dilution method; format: functional
[6] = system: Staphylococcus aureus; experiment: Antibacterial activity against methicillin-resistant Staphylococcus aureus ATCC 33591 assessed as inhibition of bacterial growth incubated for 14 hrs by two-fold serial dilution method; format: functional
[7] = system: Staphylococcus aureus; experiment: Antibacterial activity against methicillin-resistant Staphylococcus aureus clinical isolate M-16 incubated for 14 hrs by two-fold serial dilution method; format: functional
[8] = system: Staphylococcus aureus; experiment: Antibacterial activity against methicillin-resistant Staphylococcus aureus clinical isolate M-20 incubated for 14 hrs by two-fold serial dilution method; format: functional
[9] = system: Staphylococcus aureus; experiment: Antibacterial activity against Staphylococcus aureus ATCC 25923 assessed as inhibition of bacterial growth incubated for 14 hrs by two-fold serial dilution method; format: functional
[10] = system: Staphylococcus aureus; experiment: Antibacterial activity against methicillin-resistant Staphylococcus aureus clinical isolate M-18 incubated for 14 hrs by two-fold serial dilution method; format: functional
[11] = system: Staphylococcus aureus; experiment: Antibacterial activity against Staphylococcus aureus CMCC 26003 assessed as inhibition of bacterial growth incubated for 14 hrs by two-fold serial dilution method; format: functional
[12] = system: Staphylococcus aureus; experiment: Antibacterial activity against methicillin-resistant Staphylococcus aureus clinical isolate M-15 incubated for 14 hrs by two-fold serial dilution method; format: functional
[13] = system: Staphylococcus aureus; experiment: Antibacterial activity against Staphylococcus aureus ATCC 29213 assessed as inhibition of bacterial growth incubated for 14 hrs by two-fold serial dilution method; format: functional
[14] = system: Staphylococcus aureus; experiment: Antibacterial activity against methicillin-resistant Staphylococcus aureus clinical isolate M-19 incubated for 14 hrs by two-fold serial dilution method; format: functional
[15] = system: Staphylococcus aureus; experiment: Antibacterial activity against methicillin-resistant Staphylococcus aureus ATCC 43300 assessed as inhibition of bacterial growth incubated for 14 hrs by two-fold serial dilution method; format: functional
[16] = system: Staphylococcus aureus; experiment: Antibacterial activity against methicillin-resistant Staphylococcus aureus clinical isolate M-14 incubated for 14 hrs by two-fold serial dilution method; format: functional
[17] = system: Staphylococcus aureus; experiment: Antibacterial activity against Staphylococcus aureus ATCC 33591 assessed as resistance development by measuring fold increase in MIC at 0.5 times MIC incubated for 8 hrs and measured after 15 passages; format: functional
[18] = system: Staphylococcus aureus; experiment: In vivo antibacterial activity against methicillin-resistant Staphylococcus aureus infected in female Kunming mouse skin infection model assessed as recovery of dorsal surface at 5 to 20 mg/kg measured after 48 hrs; format: functional, organism-based; conditions: dose 5-20 mg/kg
[19] = system: Staphylococcus aureus; experiment: In vivo antibacterial activity against methicillin-resistant Staphylococcus aureus infected in female Kunming mouse skin infection model assessed as reduction in inflammatory cells at 5 to 20 mg/kg measured after 48 hrs by H and E staining based analysis; format: functional, organism-based; conditions: dose 5-20 mg/kg
[20] = system: Staphylococcus aureus; experiment: In vivo antibacterial activity against methicillin-resistant Staphylococcus aureus infected in female Kunming mouse skin infection model assessed as log reduction in bacterial load at 5 mg/kg measured after 48 hrs (reference value: 14.34 log10CFU/g); format: functional
[21] = system: Staphylococcus aureus; experiment: Antibacterial activity against Staphylococcus aureus ATCC 33591 assessed as log reduction in bacterial growth at 1 times MIC measured at 6 hrs by time-kill kinetic assay; format: functional

C[n+]1ccc2c3ccccc3n(CCCCCCCCCn3c4ccccc4c4cc[n+](C)cc43)c2c1.[I-].[I-]
MIC [1]: 4 µg/mL
MIC [2]: 2 µg/mL
MIC [3]: 4 µg/mL
MIC [4]: 1 µg/mL
MIC [5]: 4 µg/mL
MIC [6]: 0.5 µg/mL
MIC [7]: 2 µg/mL
MIC [8]: 2 µg/mL
MIC [9]: 4 µg/mL
MIC [10]: 4 µg/mL
MIC [11]: 0.5 µg/mL
MIC [12]: 4 µg/mL
MIC [13]: 2 µg/mL
MIC [14]: 4 µg/mL
MIC [15]: 4 µg/mL
MIC [16]: 1 µg/mL

C[n+]1ccc2c3ccccc3n(CCCCCCCCCCCCn3c4ccccc4c4cc[n+](C)cc43)c2c1.[I-].[I-]
MIC [1]: 1 µg/mL
MIC [2]: 1 µg/mL
MIC [3]: 1 µg/mL
MIC [4]: 1 µg/mL
MIC [5]: 1 µg/mL
MIC [6]: 0.5 µg/mL
MIC [7]: 1 µg/mL
MIC [8]: 1 µg/mL
MIC [9]: 1 µg/mL
MIC [10]: 1 µg/mL
MIC [11]: 0.5 µg/mL
MIC [12]: 1 µg/mL
MIC [13]: 0.5 µg/mL
MIC [14]: 1 µg/mL
MIC [15]: 1 µg/mL
MIC [16]: 1 µg/mL

c1ccc2c(c1)[nH]c1cnccc12 [NORHARMANE]
MIC [6]: 64 µg/mL (≈ 381 µM)
MIC [9]: 32 µg/mL (≈ 190 µM)
MIC [11]: 64 µg/mL (≈ 381 µM)
MIC [13]: 64 µg/mL (≈ 381 µM)
MIC [15]: 64 µg/mL (≈ 381 µM)

CCn1cc(C(=O)O)c(=O)c2cc(F)c(N3CCNCC3)cc21 [NORFLOXACIN]
fold change (FC) [17]: 16

C[n+]1ccc2c3ccccc3n(CCCCCCCCCCn3c4ccccc4c4cc[n+](C)cc43)c2c1.[I-].[I-]
MIC [1]: 2 µg/mL
MIC [2]: 1 µg/mL
MIC [3]: 2 µg/mL
MIC [4]: 1 µg/mL
MIC [5]: 2 µg/mL
MIC [6]: 0.5 µg/mL
MIC [7]: 1 µg/mL
MIC [8]: 1 µg/mL
MIC [9]: 2 µg/mL
MIC [10]: 2 µg/mL
MIC [11]: 0.5 µg/mL
MIC [12]: 2 µg/mL
MIC [13]: 1 µg/mL
MIC [14]: 2 µg/mL
MIC [15]: 2 µg/mL
MIC [16]: 1 µg/mL

CCN(CC)CCn1c2ccccc2c2ccncc21
MIC [6]: 128 µg/mL (≈ 479 µM)
MIC [9]: 64 µg/mL (≈ 239 µM)
MIC [11]: 128 µg/mL (≈ 479 µM)
MIC [13]: 128 µg/mL (≈ 479 µM)
MIC [15]: 128 µg/mL (≈ 479 µM)

C[n+]1ccc2c3ccccc3n(CC[N+](C)(C)C)c2c1.[I-].[I-]
MIC [6]: > 128 µg/mL
MIC [9]: 128 µg/mL
MIC [11]: > 128 µg/mL
MIC [13]: > 128 µg/mL
MIC [15]: > 128 µg/mL

c1ccc2c(c1)c1ccncc1n2CCCCCCCCCn1c2ccccc2c2ccncc21
MIC [6]: > 128 µg/mL
MIC [9]: > 128 µg/mL
MIC [11]: > 128 µg/mL
MIC [13]: > 128 µg/mL
MIC [15]: > 128 µg/mL

c1ccc2c3c([nH]c2c1)CNCC3 [TRYPTOLINE]
MIC [6]: 128 µg/mL (≈ 743 µM)
MIC [9]: 128 µg/mL (≈ 743 µM)
MIC [11]: 128 µg/mL (≈ 743 µM)
MIC [13]: > 128 µg/mL
MIC [15]: 128 µg/mL (≈ 743 µM)

CC[n+]1ccc2c3ccccc3n(CC[N+](C)(C)CC)c2c1.[Br-].[Br-]
MIC [6]: > 128 µg/mL
MIC [9]: 128 µg/mL
MIC [11]: > 128 µg/mL
MIC [13]: > 128 µg/mL
MIC [15]: > 128 µg/mL

CN[C@H](CC(C)C)C(=O)N[C@H]1C(=O)N[C@@H](CC(N)=O)C(=O)N[C@H]2C(=O)N[C@H]3C(=O)N[C@H](C(=O)N[C@H](C(=O)O)c4cc(O)cc(O)c4-c4cc3ccc4O)[C@H](O)c3ccc(c(Cl)c3)Oc3cc2cc(c3O[C@@H]2O[C@H](CO)[C@@H](O)[C@H](O)[C@H]2O[C@H]2C[C@](C)(N)[C@H](O)[C@H](C)O2)Oc2ccc(cc2Cl)[C@H]1O [VANCOMYCIN]
Activity [18]: Active
Activity [19]: Active
Activity [20]: 4.99 log10CFU/g
Activity [21]: 2.74 log10CFU/ml

CC[N+](C)(CC)CCn1c2ccccc2c2cc[n+](C)cc21.[I-].[I-]
MIC [6]: > 128 µg/mL
MIC [9]: 128 µg/mL
MIC [11]: > 128 µg/mL
MIC [13]: > 128 µg/mL
MIC [15]: > 128 µg/mL

CC[n+]1ccc2c3ccccc3n(CC[N+](CC)(CC)CC)c2c1.[Br-].[Br-]
MIC [6]: > 128 µg/mL
MIC [9]: 128 µg/mL
MIC [11]: > 128 µg/mL
MIC [13]: > 128 µg/mL
MIC [15]: > 128 µg/mL

c1ccc2c(c1)c1ccncc1n2CCCCCCCCCCCn1c2ccccc2c2ccncc21
MIC [6]: > 128 µg/mL
MIC [9]: > 128 µg/mL
MIC [11]: > 128 µg/mL
MIC [13]: > 128 µg/mL
MIC [15]: > 128 µg/mL

CCC[n+]1ccc2c3ccccc3n(CC[N+](C)(C)CCC)c2c1.[Br-].[Br-]
MIC [6]: > 128 µg/mL
MIC [9]: 64 µg/mL
MIC [11]: > 128 µg/mL
MIC [13]: > 128 µg/mL
MIC [15]: > 128 µg/mL

c1ccc2c(c1)c1ccncc1n2CCCCCCCCCCn1c2ccccc2c2ccncc21
MIC [6]: > 128 µg/mL
MIC [9]: > 128 µg/mL
MIC [11]: > 128 µg/mL
MIC [13]: > 128 µg/mL
MIC [15]: > 128 µg/mL

c1ccc2c(c1)c1ccncc1n2CCCCCCCCCCCCn1c2ccccc2c2ccncc21
MIC [6]: > 128 µg/mL
MIC [9]: > 128 µg/mL
MIC [11]: > 128 µg/mL
MIC [13]: > 128 µg/mL
MIC [15]: > 128 µg/mL

CN(C)CCn1c2ccccc2c2ccncc21
MIC [6]: 128 µg/mL (≈ 535 µM)
MIC [9]: 64 µg/mL (≈ 267 µM)
MIC [11]: > 128 µg/mL
MIC [13]: 64 µg/mL (≈ 267 µM)
MIC [15]: > 128 µg/mL

CCN(CC)CCn1c2ccccc2c2cc[n+](CC)cc21.[Br-]
MIC [6]: 128 µg/mL
MIC [9]: 32 µg/mL
MIC [11]: 32 µg/mL
MIC [13]: > 128 µg/mL
MIC [15]: > 128 µg/mL

CCCCC[n+]1ccc2c3ccccc3n(CC[N+](C)(C)CCCCC)c2c1.[Br-].[Br-]
MIC [6]: > 128 µg/mL
MIC [9]: 128 µg/mL
MIC [11]: > 128 µg/mL
MIC [13]: > 128 µg/mL
MIC [15]: > 128 µg/mL

CCCCC[n+]1ccc2c3ccccc3n(CCN(CC)CC)c2c1.[Br-]
MIC [6]: 32 µg/mL
MIC [9]: 8 µg/mL
MIC [11]: 16 µg/mL
MIC [13]: 128 µg/mL
MIC [15]: 32 µg/mL

CCCC[n+]1ccc2c3ccccc3n(CC[N+](C)(C)CCCC)c2c1.[Br-].[Br-]
MIC [6]: 128 µg/mL
MIC [9]: 128 µg/mL
MIC [11]: > 128 µg/mL
MIC [13]: > 128 µg/mL
MIC [15]: > 128 µg/mL

CCCC[n+]1ccc2c3ccccc3n(CCN(CC)CC)c2c1.[Br-]
MIC [6]: 64 µg/mL
MIC [9]: 16 µg/mL
MIC [11]: 16 µg/mL
MIC [13]: 128 µg/mL
MIC [15]: 64 µg/mL

CCC[n+]1ccc2c3ccccc3n(CCN(CC)CC)c2c1.[Br-]
MIC [6]: 128 µg/mL
MIC [9]: 32 µg/mL
MIC [11]: 32 µg/mL
MIC [13]: > 128 µg/mL
MIC [15]: 128 µg/mL

From ChEMBL document CHEMBL6177951, “Synthesis and anti-MRSA activity of quaternized small molecule antimicrobial peptide mimics based on norharmane” (Eur J Med Chem, 2025)
